From US5441950A, “Substituted dibenzoxazepine and dibenzthiazepine carbamate compounds, pharmaceutical compositions and methods of use” (G. D. Searle & Co., priority 1994, dated 1995)
Where a name gives a salt, the structure may show the parent alone. Read-outs that look alike come from different tables or passages of the source.

How the values were obtained:
[1] = target: T1, prostaglandin E2 -induced contractions of segments of guinea pig ileum (Cavia porcellus, UniProt A0A286XHJ6); assay: Prostaglandin (PGE) Antagonism Assay (prostaglandin E2-induced contractions of guinea pig ileum segments); details: for PGE in guinea pig ileum, dose ratio: dose ratio of prostaglandin E2 EC50 doses, initial test concentration 3 micromolar
T1 construct: The ilea were then quickly removed from the guinea pigs; from tissue; host or cells: guinea pig ileum segments (male albino guinea pigs)
T1 sequence (A0A286XHJ6 1-405): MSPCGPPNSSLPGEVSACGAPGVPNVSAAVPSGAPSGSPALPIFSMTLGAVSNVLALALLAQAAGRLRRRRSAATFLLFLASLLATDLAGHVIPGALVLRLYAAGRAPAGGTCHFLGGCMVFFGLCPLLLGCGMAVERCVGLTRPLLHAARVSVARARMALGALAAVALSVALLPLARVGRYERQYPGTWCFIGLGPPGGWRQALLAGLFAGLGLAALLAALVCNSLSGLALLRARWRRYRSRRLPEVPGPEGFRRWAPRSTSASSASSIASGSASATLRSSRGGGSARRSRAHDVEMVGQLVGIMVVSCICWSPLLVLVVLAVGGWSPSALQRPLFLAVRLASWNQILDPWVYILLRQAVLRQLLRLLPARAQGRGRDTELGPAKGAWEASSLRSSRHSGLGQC
Excerpt: The ilea were then quickly removed from the guinea pigs and placed in a modified Tyrode solution, a solution which is known to those skilled in the art, containing one-half of the usual amount of magnesium ions. […] Data for a control prostaglandin E2 dose response curve plotting concentration of prostaglandin E2 versus the intensity of contractions, detected isotonically, was then obtained by experimentally adjusting the dose of the prostaglandin E2 being injected into the tissue bath, in a manner known by those of skill in the art. Solutions or suspensions containing an initial concentration (3 micromolar) of a test compound in modified Tyrode solution ("test solutions/suspensions") were then separately substituted for the control bath solution. Each test solution/suspension was then kept in constant contact with the ileum tissue, except for brief periods to drain the bath in preparation for rinsing with fresh test solution/suspension. A second prostaglandin E2 dose response curve was then generated for prostaglandin E2 in the presence of a test compound. A dose ratio of EC50 doses was then calculated from the results of each test in a manner known by those of skill in the art.

mice = assay: Writhing Assay (PBQ-induced writhing, analgesia, intragastric); format: in vivo, mouse (Charles River male albino mice); details: for responders at 30 mg/kg: ip, 0.5 h, read-out: WRITHING ASSAY, number of mice out of nine or ten in which the test compound produced analgesia
Excerpt: The Writhing Assay is one of the most widely-used experimental procedures for measuring the analgesic activity of different narcotic and nonnarcotic analgesic agents, and involves the continuous, chemically-induced pain of visceral origin to an animal, such as a mouse or rat. [Gyires et al., Arch. int. […] Chemicals which may be used to induce this pain include phenylbenzoquinone (PBQ) and acetic acid. As a result of the chemical irritation to the animal, a characteristic stretching and writhing of the animal (dorsiflexion of the animal's back, extension of its hindlimbs and the strong contraction of its abdominal musculature) will generally occur. […] Drugs which reduce the number of writhes of the animal appear to restore the normal nociceptive threshold of the animal. […] Charles River male albino mice, weighing 20 to 30 grams, were used in this assay. […] Ten mice which were given saline in place of a test compound of the invention were used as a control group. Five minutes later, each mouse was individually placed into a glass beaker for observation, and the number of writhes occurring during the following ten-minute period was counted. […] The standard initial screening dose of a test compound employed in this assay was 30 mpk […].

[2] = Mus musculus, 30 mg per kilogram, I.G., 30 min before PBQ i.p., writhes <= one-half the control median

## O=C(CNC(=O)N1Cc2ccccc2Oc2ccc(Cl)cc21)NCc1ccncc1 [Example 6, 8-chloro-N-[[[(4-pyridinylmethyl)amino]carbonyl]methyl]-10(11H)-dibenz[b,f][1,4]oxazepinecarboxamide, hydrochloride]
[1]; Schild plot, prostaglandin E2-induced contractions, read-out: PGE in guinea pig ileum, pA2 (converted)
  Kb: 0.955 µM
mice; [2]
  responders at 30 mg/kg: 60%

## Cl.O=C(CNC(=O)N1Cc2ccccc2Oc2ccc(Cl)cc21)NCCc1ccccn1 [Example 8, 8-chloro-N-[[[[2-(2-pyridinyl)ethyl]amino]carbonyl]methyl]-10(11H) dibenz[b,f][1,4]oxazepinecarboxamide hydrochloride]
[1]
  PGE in guinea pig ileum, dose ratio: 11.02
mice; [2]
  responders at 30 mg/kg: 30%

## O=C(OCCCc1ccncc1)N1Cc2ccccc2Oc2ccc(Cl)cc21 [Example 10, 3-(4-pyridinyl)propyl 8-chloro-10(11H)dibenz[b,f][1,4]oxazepinecarboxylate,monohydrochloride]
[1]
  PGE in guinea pig ileum, dose ratio: 2.63
mice; [2]
  responders at 30 mg/kg: 30%

## CN(C)Cc1ccc(COC(=O)N2Cc3ccccc3Oc3ccc(Cl)cc32)o1 [Example 12, [2-(dimethylaminomethyl)furan-5-yl]methyl-8-chlorodibenz[b,f][1,4]oxazepine-10(11H)carboxylate, monohydrochloride]
mice; [2]
  responders at 30 mg/kg: 20%

## O=C(OCCCNCc1ccncc1)N1Cc2ccccc2Oc2ccc(Cl)cc21 [Example 14, 3-[[(4-pyridinyl)methyl]amino]propyl-8-chlorodibenz[b, f][1,4]oxazepine-10(11H)carboxylate, hydrochloride]
[1]
  PGE in guinea pig ileum, dose ratio: 25.03
mice; [2]
  responders at 30 mg/kg: 50%

## O=C(CNC(=O)N1Cc2ccccc2Oc2ccc(Cl)cc21)Nc1ccncc1 [Example 16, 8-chloro-N-[[[(4-pyridinyl)amino]carbonyl]methyl]dibenz[b,f][1,4]oxazepine-10(11H)carboxamide, monohydrochloride]
[1]
  PGE in guinea pig ileum, dose ratio: 1.70
mice; [2]
  responders at 30 mg/kg: 80%

## CC(C)(CNC(=O)OCc1ccccc1)NC(=O)N1Cc2ccccc2Oc2ccc(Cl)cc21 [Example 18, phenylmethyl N-[2-[[(8-chlorodibenz[b,f][1,4]oxazepine-10(11H)-yl]carbonyl]amino]-2-methylpropyl]carbamate]
[1]
  PGE in guinea pig ileum, dose ratio: 2.6
mice; [2]
  responders at 30 mg/kg: 40%

## O.O=C(NCc1nn[nH]n1)N1Cc2ccccc2Oc2ccc(Cl)cc21.[Na] [Example 20, 8-chloro-N-[(2H-tetrazol-5-yl)methyl]dibenz[b,f][1,4]oxazepine-10(11H)-carboxamide, sodium salt, hydrate]
[1]
  PGE in guinea pig ileum, dose ratio: 1.80
mice; Mus musculus
  responders at 30 mg/kg: 20%

## O=C(NCCCCc1ccncc1)N1Cc2ccccc2Oc2ccc(Cl)cc21 [Example 24, 8-chloro-N-[4-(4-pyridinyl)butyl]dibenz[b,f][1,4]oxazepine-10(11H)-carboxamide]
[1]
  PGE in guinea pig ileum, dose ratio: 7.9
mice; [2]
  responders at 30 mg/kg: 60%

## CC(C)(CNC(=O)c1ccncc1)NC(=O)N1Cc2ccccc2Oc2ccc(Cl)cc21 [Example 28, 8-chloro-N-[2-[[(4-pyridinyl)carbonyl]amino-1,1-dimethylethyl]dibenz[b,f][1,4]oxazepine-10(11H)carboxamide, hydrochloride hydrate]
[1]
  PGE in guinea pig ileum, dose ratio: 2.0
mice; [2]
  responders at 30 mg/kg: 20%

## CCN(CC)CCCCCOC(=O)N1Cc2ccccc2Oc2ccc(Cl)cc21 [Example 29, 5-(diethylamino)pentyl 8-chlorodibenz[b,f][1,4]oxazepine-10(11H)-carboxylate]
mice; [2]
  responders at 30 mg/kg: 70%
mice; mice, I.G.
  potency in the Writhing Assay (in words): most potent compound of the invention tested in this assay

## COC(=O)[C@@H](C)NC(=O)N1Cc2ccccc2Oc2ccc(Cl)cc21 [Example 31, methyl (D)-2R-[[(8-chlorodibenz[b,f][1,4]oxazepine-10(11H)-yl)carbonyl]amino]propanoate]
[1]
  PGE in guinea pig ileum, dose ratio: 1.4
mice; [2]
  responders at 30 mg/kg: 80%

## COC(=O)[C@H](C)NC(=O)N1Cc2ccccc2Oc2ccc(Cl)cc21 [Example 32, methyl (L)-2R-[[(8-chlorodibenz[b,f][1,4]oxazepine-10-(11H)-yl)carbonyl]amino]propanoate]
[1]
  PGE in guinea pig ileum, dose ratio: 3.5
mice; Mus musculus, po, I.G., mice, PBQ, read-out: WRITHING ASSAY, ED50 Dose
  ED50: 7.2 mg/kg

## C[C@@H](NC(=O)N1Cc2ccccc2Oc2ccc(Cl)cc21)C(=O)O [Example 33, (D)-2R-[[(8-chlorodibenz[b,f][1,4]oxazepine-10(11H)yl)carbonyl]amino]propanoic acid]
[1]
  PGE in guinea pig ileum, dose ratio: 2.0
mice; [2]
  responders at 30 mg/kg: 60%

## C[C@H](NC(=O)N1Cc2ccccc2Oc2ccc(Cl)cc21)C(=O)O [Example 34, (L)-2S-[[(8-chlorodibenz[b,f][1,4]oxazepine-10(11H)yl)carbonyl]amino]propanoic acid]
[1]
  PGE in guinea pig ileum, dose ratio: 1.7
mice; [2]
  responders at 30 mg/kg: 20%

## O=C(OCc1ccccc1)N1Cc2ccccc2Oc2ccc(Cl)cc21 [Example 43, phenylmethyl 8-chlorodibenz[b,f][1,4]oxazepine-10(11H)-carboxylate]
[1]
  PGE in guinea pig ileum, dose ratio: 0.3

## O=C(OCc1ccncc1)N1Cc2ccccc2Oc2ccc(Cl)cc21 [Example 44, (4-pyridinyl)methyl 8-chlorodibenz[b,f][1,4]oxazepine-10(11H)-carboxylate]
[1]
  PGE in guinea pig ileum, dose ratio: 365

## O=C(NCc1ccncc1)N1Cc2ccccc2Oc2ccc(Cl)cc21 [Example 45, 8-chloro-N-(4-pyridinylmethyl)dibenz[b,f][1,4]oxazepine-10(11H)carboxamide,monohydrochloride]
[1]
  PGE in guinea pig ileum, dose ratio: 1.0
mice; [2]
  responders at 30 mg/kg: 60%

## O=C(NCc1cccnc1)N1Cc2ccccc2Oc2ccc(Cl)cc21 [Example 46, 8-chloro-N-(3-pyridinylmethyl)dibenz[b,f]oxazepine-10(11H)-carboxamide, monohydrochloride]
[1]
  PGE in guinea pig ileum, dose ratio: 2.7
mice; [2]
  responders at 30 mg/kg: 40%

## O=C(NCc1ccccn1)N1Cc2ccccc2Oc2ccc(Cl)cc21 [Example 47, 8-chloro-N-(2-pyridinylmethyl)dibenz[b,f][1,4]oxazepine-10(11H)-carboxamide, monohydrochloride]
mice; [2]
  responders at 30 mg/kg: 80%
